Drawing on US5668131A, “Substituted aminoalkylaminopyridines” (BYK Gulden Lomberg Chemische Fabrik GmbH, priority 1993, dated 1997), this text covers MIC-Value and MIC for 18 compounds.

Counter-ions that a name gives are not always drawn.

For one assay, the system named is Helicobacter pylori. Put plainly: Activity on Helicobacter pylori (MIC, Columbia agar, 4 days growth period). The format is cell-based. The note with it: Columbia agar (Oxoid), growth period of 4 days.
As for `Cc1c(N(C)CCN(C)Cc2ccco2)ccnc1CSc1nc2ccccc2[nH]1.Cl.Cl.Cl` [Compound 4, 2-{3-Methyl-4-{N-{2-[N-(2-furfuryl)-N-methylamino]-ethyl}-N-methylamino}-2-pyridyl}-methylthio-1H-benzimidazole trihydrochloride], the MIC-Value was less than 1 µg/mL.

The same assay, now with this note: Helicobacter pylori, 96 h; Columbia agar (Oxoid), growth period of 4 days.
For `CCN(CCN(C)c1ccnc(CSc2nc3ccccc3[nH]2)c1Cl)Cc1ccccc1` [Compound 1, 2-{3-Chloro-4-{N-[2-(N-benzyl-N-ethylamino)ethyl]-N-methylamino}-2-pyridyl)-methylthio-1H-benzimidazole trihydrochloride], the MIC (in general, the least concentration at which growth counts as inhibited) was less than 1 µg/mL.
`CN(CCN1CCc2ccccc2C1)c1ccnc(CSc2nc3ccccc3[nH]2)c1Cl` [Compound 2, 2-{3-Chloro-4-{N-[2-(1,2,3,4-tetrahydro-2-isoquinolinyl)ethyl]-N-methylamino}-2-pyridyl}-methylthio-1H-benzimidazole trihydrochloride] came in with an MIC of less than 1 µg/mL.
On the same count and under the same terms, under `CN(CCN1CCc2ccccc2C1)c1ccnc(CSc2nc3ncccc3[nH]2)c1Cl` [Compound 5, 2-{3-Chloro-4-{N-[2-(1,2,3,4-tetrahydro-2-isoquinolinyl)ethyl]-N-methylamino)-2-pyridyl}-methylthio-1H-imidazo[5,4-b]pyridine] stands less than 1 µg/mL; under `CN(CCN(C)c1ccnc(CSc2nc3ccccc3[nH]2)c1Cl)Cc1ccccc1` [Compound 6, 2-{3-Chloro-4-{N-[2-(N-benzyl-N-methylamino)-ethyl]-N-methylamino}-2-pyridyl}-methylthio-1H-benzimidazole trihydrochloride], less than 1 µg/mL; under `CN(CCc1ccccc1)CCN(C)c1ccnc(CSc2nc3ccccc3[nH]2)c1Cl` [Compound 9, 2-{3-Chloro-4-{N-[2-(N-methyl-N-phenethylamino)-ethyl]-N-methylamino}-2-pyridyl}-methylthio-1H-benzimidazole trihydrochloride], less than 1 µg/mL.
The same measure, in the same setting: under `CN(CCN(C)c1ccnc(CSc2nc3ccccc3[nH]2)c1Cl)Cc1ccco1` [Compound 10, 2-{3-Chloro-4-{N-[2-(N-furfuryl-N-methylamino)ethyl]-N-methylamino}-2-pyridyl}-methylthio-1H-benzimidazole trihydrochloride] stands less than 1 µg/mL; under `CN(CCN1CCC(c2ccccc2)CC1)c1ccnc(CSc2nc3ccccc3[nH]2)c1Cl` [Compound 11, 2-{3-Chloro-4-{N-[2-(4-phenyl-piperidino)-ethyl]-N-methylamino}-2-pyridyl}-methylthio-1H-benzimidazole], less than 1 µg/mL; under `CN(CCN1CCC(Cc2ccccc2)CC1)c1ccnc(CSc2nc3ccccc3[nH]2)c1Cl` [Compound 12, 2-{3-Chloro-4-{N-[2-[4-benzyl-piperidino)-ethyl]-N-methylamino}-2-pyridyl}-methylthio-1H-benzimidazole], less than 1 µg/mL.
Same read-out and setting: under `CN(CCN1CCCCC1)c1ccnc(CSc2nc3ccccc3[nH]2)c1Cl` [Compound 13, 2-{3-Chloro-4-[N-(2-piperidinoethyl)-N-methylamino]-2-pyridyl}-methylthio-1H-benzimidazole] stands less than 1 µg/mL.
`COc1cc2c(cc1OC)CN(CCN(C)c1ccnc(CSc3nc4ccccc4[nH]3)c1Cl)CC2` [Compound 14, 2-{3-Chloro-4-{N-[2-(6,7-dimethoxy-1,2,3,4-tetrahydro-2-isoquinolinyl)ethyl]-N-methylamino}-2-pyridyl}-methylthio-1H-benzimidazole]: the MIC was less than 1 µg/mL.
Compound `CN(CCN1CCN(c2ccccc2)CC1)c1ccnc(CSc2nc3ccccc3[nH]2)c1Cl` [Compound 15, 2-{3-Chloro-4-{N-[2-(4-phenylpiperazino)-ethyl]-N-methylamino}-2-pyridyl}-methylthio-1H-benzimidazole hydrochloride] gave an MIC of less than 1 µg/mL.
Regarding `CN(CCN1CCN(Cc2ccccc2)CC1)c1ccnc(CSc2nc3ccccc3[nH]2)c1Cl` [Compound 16, 2-{3-Chloro-4-{N-[2-(4-benzylpiperazino)-ethyl]-N-methylamino}-2-pyridyl}-methylthio-1H-benzimidazole trihydrochloride], the MIC was less than 1 µg/mL.
As for `COc1ccccc1N1CCN(CCN(C)c2ccnc(CSc3nc4ccccc4[nH]3)c2Cl)CC1` [Compound 17, 2-{3-Chloro-4-{N-[2-(4-(2-methoxyphenyl)-piperazino)-ethyl]-N-methylamino}-2-pyridyl}-methylthio-1H-benzimidazole trihydrochloride], the MIC is less than 1 µg/mL.
The same measure, in the same setting: as for `CN(CCCN1CCc2ccccc2C1)c1ccnc(CSc2nc3ccccc3[nH]2)c1Cl` [Compound 18, 2-{3-Chloro-4-{N-[3-(1,2,3,4-tetrahydro-2-isoquinolinyl)-propyl]-N-methylamino}-2-pyridyl}-methylthio-1H-benzimidazole trihydrochloride], the figure is less than 1 µg/mL.
In turn, `CN(CCCN(C)c1ccnc(CSc2nc3ccccc3[nH]2)c1Cl)Cc1ccccc1` [Compound 19, 2-{3-Chloro-4-{N-[3-(N-benzyl-N-methylamino)propyl]-N-methylamino}-2-pyridyl}-methylthio-1H-benzimidazole trihydrochloride] returned an MIC of less than 1 µg/mL.
The compound `COc1cc2c(cc1OC)CN(CCCN(C)c1ccnc(CSc3nc4ccccc4[nH]3)c1Cl)CC2` [Compound 20, 2-{3-Chloro-4-{N-[3-(6,7-dimethoxy-1,2,3,4-tetrahydro-2-isoquinolinyl)-propyl]-N-methylamino}-2-pyridyl}-methylthio-1H-benzimidazole trihydrochloride] registered an MIC of less than 1 µg/mL.
Same read-out and setting: under `CN(CCCN1CCC(Cc2ccccc2)CC1)c1ccnc(CSc2nc3ccccc3[nH]2)c1Cl` [Compound 21, 2-{3-Chloro-4-{N-[3-(4-benzyl-piperidino)-propyl]-N-methylamino}-2-pyridyl}-methylthio-1H-benzimidazole trihydrochloride] stands less than 1 µg/mL.
